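Step 1: Grow cells in 96-well plates. Step 2: Expose to compound for 48 hours at 5 concentrations. Step 3: Interpolate endpoints linearly; if unreached, use highest concentration. Abbreviation: GI50, concentration required for 50% inhibition of growth. At the TGI there is no net growth.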
Key:
Assay in all cases: NCI anticancer screen, dose series, 48 h
NCI-H522 lung = tested on: NCI-H522 lung
KM12 colon = tested on: KM12 colon
HS 578T breast = tested on: HS 578T breast
M14 melanoma = tested on: M14 melanoma
MOLT-4 leukemia = tested on: MOLT-4 leukemia
A498 renal = tested on: A498 renal
OVCAR-3 ovarian = tested on: OVCAR-3 ovarian
NCI-H23 lung = tested on: NCI-H23 lung
A549 NSCLC = tested on: A549 NSCLC
SK-OV-3 ovarian = tested on: SK-OV-3 ovarian
U251 CNS = tested on: U251 CNS
DU-145 prostate = tested on: DU-145 prostate
HCT-15 colon = tested on: HCT-15 colon
OVCAR-5 ovarian = tested on: OVCAR-5 ovarian
LOX IMVI melanoma = tested on: LOX IMVI melanoma
SF-295 CNS = tested on: SF-295 CNS
MALME-3M melanoma = tested on: MALME-3M melanoma
NCI/ADR-RES ovarian = tested on: NCI/ADR-RES ovarian
OVCAR-8 ovarian = tested on: OVCAR-8 ovarian
CAKI-1 renal = tested on: CAKI-1 renal
ACHN renal = tested on: ACHN renal
786-0 renal = tested on: 786-0 renal
SW-620 colon = tested on: SW-620 colon
RPMI-8226 leukemia = tested on: RPMI-8226 leukemia
HL-60(TB) leukemia = tested on: HL-60(TB) leukemia
MDA-MB-231 breast = tested on: MDA-MB-231 breast
NCI-H460 lung = tested on: NCI-H460 lung
OVCAR-4 ovarian = tested on: OVCAR-4 ovarian
HOP-92 NSCLC = tested on: HOP-92 NSCLC
HCT-116 colon = tested on: HCT-116 colon
SN12C renal = tested on: SN12C renal
HCC-2998 colon = tested on: HCC-2998 colon
MCF7 breast = tested on: MCF7 breast
RXF 393 renal = tested on: RXF 393 renal
HT29 colon = tested on: HT29 colon
SK-MEL-2 melanoma = tested on: SK-MEL-2 melanoma
T-47D breast = tested on: T-47D breast
COLO 205 colon = tested on: COLO 205 colon
EKVX NSCLC = tested on: EKVX NSCLC
IGROV1 ovarian = tested on: IGROV1 ovarian
UACC-257 melanoma = tested on: UACC-257 melanoma
K-562 leukemia = tested on: K-562 leukemia
SK-MEL-5 melanoma = tested on: SK-MEL-5 melanoma
HOP-62 NSCLC = tested on: HOP-62 NSCLC
TK-10 renal = tested on: TK-10 renal
SNB-19 CNS = tested on: SNB-19 CNS
CCRF-CEM leukemia = tested on: CCRF-CEM leukemia
UO-31 renal = tested on: UO-31 renal
MDA-MB-435 = tested on: MDA-MB-435
BT-549 breast = tested on: BT-549 breast
SNB-75 CNS = tested on: SNB-75 CNS
SR leukemia = tested on: SR leukemia
SF-539 CNS = tested on: SF-539 CNS
SK-MEL-28 melanoma = tested on: SK-MEL-28 melanoma
SF-268 CNS = tested on: SF-268 CNS
NCI-H226 lung = tested on: NCI-H226 lung

CCCC(=O)O[C@]1(C)CC[C@@H]2[C@H]3[C@@H]1[C@@H]1C[C@@](C)(O)[C@H](OC)CC[C@](C)(OC(=O)[C@@H]2C)[C@H]3O1
GI50 (NCI-H522 lung): 32 µM
TGI (NCI-H522 lung): > 100 µM
GI50 (KM12 colon): 19.4 µM
TGI (KM12 colon): 44.7 µM
GI50 (HS 578T breast): 28.8 µM
TGI (HS 578T breast): 72.7 µM
GI50 (M14 melanoma): 28.9 µM
TGI (M14 melanoma): > 100 µM
GI50 (MOLT-4 leukemia): 23.5 µM
TGI (MOLT-4 leukemia): 52 µM
GI50 (A498 renal): 35.4 µM
TGI (A498 renal): > 100 µM
GI50 (OVCAR-3 ovarian): 16.9 µM
TGI (OVCAR-3 ovarian): 40 µM
GI50 (NCI-H23 lung): 96.1 µM
TGI (NCI-H23 lung): > 100 µM
GI50 (A549 NSCLC): 40.6 µM
TGI (A549 NSCLC): > 100 µM
GI50 (SK-OV-3 ovarian): 31 µM
TGI (SK-OV-3 ovarian): 97.1 µM
GI50 (U251 CNS): 56.9 µM
TGI (U251 CNS): > 100 µM
GI50 (DU-145 prostate): 43.4 µM
TGI (DU-145 prostate): > 100 µM
GI50 (HCT-15 colon): 47 µM
TGI (HCT-15 colon): > 100 µM
GI50 (OVCAR-5 ovarian): 58.9 µM
TGI (OVCAR-5 ovarian): > 100 µM
GI50 (LOX IMVI melanoma): 66.9 µM
TGI (LOX IMVI melanoma): > 100 µM
GI50 (SF-295 CNS): 30 µM
TGI (SF-295 CNS): > 100 µM
GI50 (MALME-3M melanoma): 17.8 µM
TGI (MALME-3M melanoma): 33.8 µM
GI50 (NCI/ADR-RES ovarian): 67.1 µM
TGI (NCI/ADR-RES ovarian): > 100 µM
GI50 (OVCAR-8 ovarian): 39.1 µM
TGI (OVCAR-8 ovarian): > 100 µM
GI50 (CAKI-1 renal): 18.6 µM
TGI (CAKI-1 renal): 39.8 µM
GI50 (ACHN renal): 35.8 µM
TGI (ACHN renal): > 100 µM
GI50 (786-0 renal): > 100 µM
TGI (786-0 renal): > 100 µM
GI50 (SW-620 colon): 34.4 µM
TGI (SW-620 colon): > 100 µM
GI50 (RPMI-8226 leukemia): 13.8 µM
TGI (RPMI-8226 leukemia): 26.8 µM
GI50 (HL-60(TB) leukemia): 21.2 µM
TGI (HL-60(TB) leukemia): 45.1 µM
GI50 (MDA-MB-231 breast): 28.9 µM
TGI (MDA-MB-231 breast): 77.6 µM
GI50 (NCI-H460 lung): 56.3 µM
TGI (NCI-H460 lung): > 100 µM
GI50 (OVCAR-4 ovarian): 22.1 µM
TGI (OVCAR-4 ovarian): 50 µM
GI50 (HOP-92 NSCLC): 17.6 µM
TGI (HOP-92 NSCLC): 31.4 µM
GI50 (HCT-116 colon): 36.5 µM
TGI (HCT-116 colon): > 100 µM
GI50 (SN12C renal): 24.8 µM
TGI (SN12C renal): 59.5 µM
GI50 (HCC-2998 colon): 17.5 µM
TGI (HCC-2998 colon): 31.2 µM
GI50 (MCF7 breast): 18.5 µM
TGI (MCF7 breast): 33.7 µM
GI50 (RXF 393 renal): 23.2 µM
TGI (RXF 393 renal): 72.9 µM
GI50 (HT29 colon): 26.9 µM
TGI (HT29 colon): 69.7 µM
GI50 (SK-MEL-2 melanoma): 65.7 µM
TGI (SK-MEL-2 melanoma): > 100 µM
GI50 (T-47D breast): 21.6 µM
TGI (T-47D breast): 44.5 µM
GI50 (COLO 205 colon): 33.7 µM
TGI (COLO 205 colon): > 100 µM
GI50 (EKVX NSCLC): 47.3 µM
TGI (EKVX NSCLC): > 100 µM
GI50 (IGROV1 ovarian): 24.9 µM
TGI (IGROV1 ovarian): 62 µM
GI50 (UACC-257 melanoma): 24.5 µM
TGI (UACC-257 melanoma): 60.7 µM
GI50 (K-562 leukemia): 14.4 µM
TGI (K-562 leukemia): 27.5 µM
GI50 (SK-MEL-5 melanoma): 34.9 µM
TGI (SK-MEL-5 melanoma): > 100 µM
GI50 (HOP-62 NSCLC): 82.7 µM
TGI (HOP-62 NSCLC): > 100 µM
GI50 (TK-10 renal): 28.8 µM
TGI (TK-10 renal): 87.4 µM
GI50 (SNB-19 CNS): 32.1 µM
TGI (SNB-19 CNS): > 100 µM
GI50 (CCRF-CEM leukemia): 2.35 µM
TGI (CCRF-CEM leukemia): 13.9 µM
GI50 (UO-31 renal): 40.4 µM
TGI (UO-31 renal): > 100 µM
GI50 (MDA-MB-435): 34.3 µM
TGI (MDA-MB-435): > 100 µM
GI50 (BT-549 breast): 40.3 µM
TGI (BT-549 breast): > 100 µM
GI50 (SNB-75 CNS): 16.3 µM
TGI (SNB-75 CNS): 39.2 µM
GI50 (SR leukemia): 14.9 µM
TGI (SR leukemia): 28.1 µM
GI50 (SF-539 CNS): 71.7 µM
TGI (SF-539 CNS): > 100 µM
GI50 (SK-MEL-28 melanoma): 19.9 µM
TGI (SK-MEL-28 melanoma): 35 µM
GI50 (SF-268 CNS): 38.6 µM
TGI (SF-268 CNS): > 100 µM
GI50 (NCI-H226 lung): 55 µM
TGI (NCI-H226 lung): > 100 µM
